Reference: article PMC2901058 (The Journal of Experimental Medicine, 2010)

Test system: JurkatCD8-TK3^WT, JurkatCD8-TK3^Gln55His, and JurkatCD8-TK3^Gln55Ala cell lines
Test: CD69 up-regulation by peptide on C1R-HLA-B*3501 APCs, JurkatCD8-TK3 lines
Format: cell-based, human
Conditions: dose–response, peptide presented on C1R–HLA-B*3501; not depicted

For HPVGEADYFEY, the “CD69 up-regulation, comparison between cell lines” value was “no significant differences in CD69 up-regulation”.
